Data taken from US8632788B2, “Parenteral formulation for epothilone analogs” (Bristol-Myers Squibb Company, priority 2001, dated 2014).

Assays:
[1] = Cytotoxic classification of the epothilone analogs
[2] = Degradation of the drug during dissolution in tertiary butanol/water, lyophilization and secondary drying; type: physicochemical; conditions: dissolution at 5° C. in tertiary butanol/water, lyophilization at −16° C. 48 hours, drying at 15° C. under high vacuum 48 hours, light protected
Method: [1S-[1R*,3R*(E),7R*,10S*,11R*,12R*,16S*]]-[…]-8,8,10,12,16-pentamethyl-3-[1-methyl-2-(2-methyl-4-thiazolyl)ethenyl]-4-aza-17-oxabicyclo[14.1.0]heptadecane-5,9-dione, 9.86 g, was wetted/partially dissolved with 600 mL of a 9:1 mixture of tertiary butanol and Water for Injection USP which had been pre-cooled to 5° C. Once the drug powder had become completely wetted, dissolution was completed by the addition of 600 mL of a 1:9 mixture of tertiary butanol and Water for Injection and 766 mL of a 1:1 mixture of tertiary butanol and Water for Injection which likewise had been pre-cooled to 5° C. thereby making the final solution a 1:1 mixture. The dissolution was carried out under protection from light.
The solution formed above was promptly lyophilized in a Virtis INOTOP lyophilizer at −16° C. under light protectant conditions over a period of 48 hours. The resultant lyophilized product (lyophile) was then further dried at 15° C. under high vacuum for 48 hours. […] The lyophile was packaged under sterile conditions into 30 mL vials, each containing 10 mg of drug and standard excess to allow for vial/needle/syringe loss.

[3] = Physicochemical properties of the epothilone analogs relevant to compounding (solubility, stability in aqueous media, pH, light, wetting)
Description: Any one or two of these characteristics might be compensated for in compounding a pharmaceutical formulation for intravenous administration, but the combination of all of them presents a formidable challenge to the pharmaceutical compounding chemist.

## C/C(=C\c1csc(C)n1)C1C[C@@H]2O[C@]2(C)CCC[C@H](C)[C@H](O)[C@@H](C)C(=O)C(C)(C)[C@@H](O)CC(=O)N1 (relative stereo) [formula II, [1S-[1R*,3R*(E),7R*,10S*,11R*,12R*,16S*]]-7,11-Dihydroxy-8,8,10,12,16-pentamethyl-3-[1-methyl-2-(2-methyl-4-thiazolyl)ethenyl]-4-aza-7-oxabicyclo[14.1.0]heptadecane-5,9-dione]
[1]
  cytotoxic class: Class D
[2]
  degradation of the drug: No detectable degradation
[3]
  light sensitivity: light sensitive
  wetting characteristics: exceptionally poor
[3]; aqueous media
  solubility in aqueous media: very low solubility
[3]; in contact with aqueous media
  degradation in contact with aqueous media: rapidly degrade
[3]; in solution
  sensitivity to low pH: sensitive to low pH
